Test results reported in patent US20220160652A1, “USE OF VITAMIN K IN COMBINATION WITH ANTICOAGULANTS” (KAYDENCE PHARMA AS, priority 2019, published 2022).
Entries after “also recorded” stand apart in the source; their conditions may differ.

Key:
VSMCs [1] = assay: Hypoxia (CoCl2) induced oxidative stress in VSMCs (DCFDA); assay type: cell-based
Protocol: This study was performed to determine whether intracellular oxidative stress in VSCMs is derived from mitochondrial dysfunction. To perform this study, VSMCs were incubated with cobalt chloride, a known stabilizer of HIF1a. Cobalt chloride binding to HIF1a prevents the degradation of HIF1a and thus results in a cellular hypoxia state. HIF1a has been implicated in cancer biology as well as a number of other pathophysiologies, specifically in areas of vascularization and angiogenesis, energy metabolism, cell survival, and tumor invasion. Under normal circumstances, after injury, HIF1a is degraded by the enzyme prolyl hydroxylase (PHD). The continued up-regulation of HIF1 a (mimicked by cobalt chloride) promotes tumor growth and metastasis through its role in initiating angiogenesis and regulating cellular metabolism to overcome hypoxia. Hypoxia promotes apoptosis in both normal and tumor cells. Additionally, hypoxia generates significant intracellular oxidative stress.
To perform the study, VSMCs (10,000 cells/well) were plated in a 96-well plate and left to adhere overnight. Next, the medium was changed to a medium supplemented with 50 μM CoCl2 for 19 hours. The next day, cells were washed and incubated for 1 hour with 20 μM DCFDA in the presence of a vehicle (solvent for CoCl2 and vitamin K2 (MK-7)/UQ10), 10 μM vitamin K2 (MK-7), or 10 μM UQ10 in medium. The medium was then changed to a medium supplemented with vehicle, vitamin K2 (MK-7)/UQ10, or CoCl2, and fluorescent was measured for 6 hours. Fluorescence intensity was normalized for cell count.

Sprague-Dawley rats = assay: T-TAS thrombus formation in whole blood of treated Sprague-Dawley rats; assay type: in vivo, rat
Protocol: This experiment was conducted in order to evaluate the effects of vitamin K2 (MK-7) on the anticoagulant activity of the new oral anticoagulants (NOAC) rivaroxaban and dabigatran using the T-TAS Total Thrombus-formation Analysis System. The T-TAS Total Thrombus-formation Analysis System is a microchip-based flow chamber system capable of evaluating whole-blood thrombogenicity. It is a useful tool in monitoring the efficacy of anticoagulants on thrombus formation and predicting the risk of bleeding complications. To perform the study, 45 wild-type male Sprague-Dawley and 45 transgenic male Ren-2 rats [TGR(mREN-2)27] at the age of 10-11 weeks at the beginning of the treatment period were purchased from animal facility IKEM-CEM Institute of Clinical and Experimental Medicine (Prague, Czech Republic). All animals in the experiment were housed in individually ventilated cages (2-3 rats per cage) and kept in the animal rooms of JCET at a relative humidity of 55±10%, a temperature of 22±2 ° C., and a light cycle of 7 AM to 7 PM. The rats had free access to food and water. After delivery, animals were randomly divided into 10 experimental groups (5 or 10 rats per group), as indicated below in Table 1. Four days before the start of the treatment, the first part of animals' body weight and food intake was measured in selected representative three cages (rats n=9) to calculate the appropriate amount of tested compounds required for addition to the diet to obtain the dosing indicated in Table 1. It was estimated that food intake was approximately 30 g of chow per rat per day. […] The body mass of the rats was measured at the beginning and at the end of treatment. At the beginning and at the end of treatment, the food intake per day was measured in representative group of animals to monitor the daily dosing of tested compounds (per kg of body mass). The thrombus formation in vitro was measured in whole blood using a microchip-based flow chamber system according to manufacturers' protocol (Total Thrombus-formation Analyser System, T-TAS; Fujimori Kogyo Co., Ltd., Tokyo, Japan). […]

[2] = system: transgenic Ren-2 rats [TGR(mREN-2)27]; assay: T-TAS thrombus formation in whole blood of treated TGR (Ren-2) rats; assay type: in vivo, rat
Protocol: This experiment was conducted in order to evaluate the effects of vitamin K2 (MK-7) on the anticoagulant activity of the new oral anticoagulants (NOAC) rivaroxaban and dabigatran using the T-TAS Total Thrombus-formation Analysis System. The T-TAS Total Thrombus-formation Analysis System is a microchip-based flow chamber system capable of evaluating whole-blood thrombogenicity. It is a useful tool in monitoring the efficacy of anticoagulants on thrombus formation and predicting the risk of bleeding complications. […] Four days before the start of the treatment, the first part of animals' body weight and food intake was measured in selected representative three cages (rats n=9) to calculate the appropriate amount of tested compounds required for addition to the diet to obtain the dosing indicated in Table 1. […] The body mass of the rats was measured at the beginning and at the end of treatment. At the beginning and at the end of treatment, the food intake per day was measured in representative group of animals to monitor the daily dosing of tested compounds (per kg of body mass). The thrombus formation in vitro was measured in whole blood using a microchip-based flow chamber system according to manufacturers' protocol (Total Thrombus-formation Analyser System, T-TAS; Fujimori Kogyo Co., Ltd., Tokyo, Japan). […]

VSMCs [3] = assay: ATP increase, 24 h incubation (luminescence); assay type: cell-based; conditions: 10 μM, p=0.014 for MK-7
Protocol: This study was performed to determine if vitamin K2 (MK-7) affects ATP generation. ATP is generated via glycolysis in the cytoplasm and via both the Krebs-cycle and oxidative phosphorylation in the mitochondria. ATP generation via glycolysis delivers only 2 ATP, whereas ATP generation in the mitochondria generates some 32 ATP.
(§1) To perform this study, VSCMs (5000 cells/well) were plated in 96-well plates and left to adhere overnight. Next, cells were incubated for 24 hours with either vehicle, vitamin K2 (MK-7) (10 μM), or UQ10 (10 μM). Hoechst was added to correct for cell number (1 μg/mL). Next, ATP was measured using mammalian lysis buffer for 5 minutes after which 50 μL ATP substrate solution was added to the wells and incubated for 10 minutes in a dark environment. Finally, the medium was transferred to a white plate to measure luminescence

VSMCs [4] = assay: ATP increase, 48 h incubation with CoCl2 comparison (luminescence); assay type: cell-based; conditions: 10 μM, vs CoCl2 100 μM
Protocol: as §1, with “This study was performed to further investigate the origin of ATP production that is influenced by vitamin K2 (MK-7). To” for “To”, “for 48” for “for 24”, “vehicle, CoCl2 (100 μM),” for “vehicle,”, “5 minutes,” for “5 minutes”, “Finally,” for “Finally, the”, “measure luminescence.” for “measure luminescence”

VSMCs [5] = assay: Warfarin-induced oxidative stress in VSMCs, warfarin concentration series (DCFDA); assay type: cell-based; conditions: warfarin 10 to 100 μM, 6 hours
Protocol: It is known that the level of reactive oxygen species in cells can be measured by measuring the conversion of 2′,7′—dichlorofluorescein diacetate (DCFDA) to the fluorescent dye 2′,7′-dichlorofluorescein (DCF). The fluorescence generated by cells subjected to DCFDA is directly proportional to the amount of oxidized DCFDA to DCF.
In this study, vitamin K metabolism was blocked using the vitamin K-antagonist warfarin. The study was conducted to investigate whether interference with vitamin K metabolism would cause intracellular oxidative stress. To perform the study, VSMCs (10,000 cells/well) were plated in 96-well plates and left to adhere overnight. Next, cells were incubated for 1 hour with 20 μM DCFDA.
The medium was then changed to a medium supplemented with different concentrations of warfarin ranging from 10 to 100 μM, and fluorescence intensity was measured over 6 hours. Fluorescence was normalized for number of cells.

[Cl][Co][Cl] [CoCl2, cobalt chloride]
oxidative stress induced by cobalt chloride (VSMCs [1]; 50 μM CoCl2): induces increased oxidative stress

O=C(NC[C@H]1CN(c2ccc(N3CCOCC3=O)cc2)C(=O)O1)c1ccc(Cl)s1 [Rivaroxaban, rivaroxaban, reference compound]
thrombus formation (Sprague-Dawley rats): inhibited thrombus formation
thrombus formation [2]: also inhibited thrombus formation

COC1=C(OC)C(=O)C(C/C=C(\C)CC/C=C(\C)CC/C=C(\C)CC/C=C(\C)CC/C=C(\C)CC/C=C(\C)CC/C=C(\C)CC/C=C(\C)CC/C=C(\C)CCC=C(C)C)=C(C)C1=O [UQ10, reference compound]
hypoxia induced oxidative stress (counteraction) (VSMCs [1]; 10 μM, after 50 μM CoCl2 for 19 hours): This effect was not found
ATP production in VSMCs compared to the vehicle (VSMCs [3]): only vitamin K2 (MK-7) increased ATP production in VSMCs significantly
ATP levels compared to CoCl2 (VSMCs [4]): significant higher ATP levels

CC(=O)CC(c1ccccc1)c1c(O)c2ccccc2oc1=O (stereo not shown) [warfarin]
intracellular oxidative stress caused by warfarin (VSMCs [5]): did cause intracellular oxidative stress; also recorded: results in increased intracellular oxidative stress
